According to US20020152479A1, “Car modulators: screening and treatment of hypercholesterolemia” (priority 2000, published 2002):
Like-named read-outs stand apart in the source and are kept apart here. Where no end group is shown, it is not given here. rhodamine = not defined here

Key:
[1] = target: T1, GST-CARα ligand binding domain fusion protein (Homo sapiens, UniProt Q14994); test: Peptide sensor fluorescence polarization assay, GST-CARα ligand binding domain with rhodamine-[…] (SRC-1 peptide)
T1 construct: made in house; host or cells: E. coli
T1 sequence (Q14994 76-348 isoform Q14994-2): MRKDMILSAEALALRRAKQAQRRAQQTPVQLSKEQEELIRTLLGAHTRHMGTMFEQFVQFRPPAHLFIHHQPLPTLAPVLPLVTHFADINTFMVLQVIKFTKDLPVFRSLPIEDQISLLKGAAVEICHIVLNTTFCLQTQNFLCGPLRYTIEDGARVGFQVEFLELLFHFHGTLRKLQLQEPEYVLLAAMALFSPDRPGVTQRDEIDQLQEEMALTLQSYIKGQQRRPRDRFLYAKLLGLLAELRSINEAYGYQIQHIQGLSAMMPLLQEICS
Procedure: (§1) A portion of DNA encoding the ligand binding domain of CARα encoding amino acids 76 to 348 (GenBank Accession No. CAA83016) was subcloned into a glutathione S-transferase (GST) fusion protein expression vector (pGEX-2TK, Amersham-Pharmacia) to create a vector that encodes a fusion protein in which GST is fused to the amino terminus of the CAR ligand binding domain. The GST-CAR protein was expressed in E. coli and purified over a glutathione affinity column. The GST-CAR fusion protein was incubated with a rhodamine-labeled peptide derived from the receptor binding domain of the coactivator SRC-1, rhodamine-[…] (SEQ ID NO: 7) (see WO 99/27365). The fluorescence polarization was measured as described in WO 99/27365.
(§2) Using the compounds set out in Table 1, a peptide sensor assay was carried out using the method of Example 3. Fusion proteins encoding the ligand binding domain of CARα (GST-CARα; see Example 3) and CARβ (GST-CARβ) were used in the assay. A portion of the DNA for the ligand binding domain of CARβ (GenBank Accession No. AF009327) encoding amino acids 86 to 358 was subcloned into a glutathione S-transferase (GST) fusion protein expression vector (pGEX-2TK, Amersham-Pharmacia) to create a vector that encodes a fusion protein in which GST is fused to the amino terminus of the CARβ ligand binding domain (GST-CARβ). The GST-CARβ was purified using glutathione affinity chromatography.
(§3) The notation ND means not determined.

[2] = target: T2, GST-CARβ ligand binding domain fusion protein (Mus musculus, UniProt O35627); test: Peptide sensor fluorescence polarization assay, GST-CARβ ligand binding domain; details: half-maximal concentration of stimulation of peptide sensor assay signal
T2 construct: encoding amino acids 86 to 358 was subcloned; made in house
T2 sequence (O35627 86-358): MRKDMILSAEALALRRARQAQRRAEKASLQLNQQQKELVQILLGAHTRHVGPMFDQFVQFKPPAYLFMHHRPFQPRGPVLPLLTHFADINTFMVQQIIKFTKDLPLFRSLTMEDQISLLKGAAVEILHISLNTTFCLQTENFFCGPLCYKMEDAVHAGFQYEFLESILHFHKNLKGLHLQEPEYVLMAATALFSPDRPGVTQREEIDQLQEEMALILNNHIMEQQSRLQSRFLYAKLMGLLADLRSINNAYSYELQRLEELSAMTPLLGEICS
Procedure: as §1, §2, §3

[3] = Total plasma cholesterol after TCPOBOP in CAR wild-type, heterozygous and knockout mice; assay type: in vivo; details: single i.p. 3 mg/kg, four days after dosing
[4] = Lipoprotein particle composition (LDL/VLDL) by electrophoresis of plasma, wild-type and CAR knockout mice; assay type: in vivo; details: single i.p. 3 mg/kg, four days after dosing
[5] = Plasma cholesterol, HDL cholesterol and triglycerides in wild-type C57B1/6 mice; assay type: in vivo; details: single i.p. 3 mg/kg, four days after dosing
mouse CAR = target: T3, mouse CAR (Mus musculus, UniProt O35627); details: Tzameli et al. (2000); read-out: EC50, upregulation of CAR-mediated transcription; cited from earlier work
T3 sequence (O35627 1-358): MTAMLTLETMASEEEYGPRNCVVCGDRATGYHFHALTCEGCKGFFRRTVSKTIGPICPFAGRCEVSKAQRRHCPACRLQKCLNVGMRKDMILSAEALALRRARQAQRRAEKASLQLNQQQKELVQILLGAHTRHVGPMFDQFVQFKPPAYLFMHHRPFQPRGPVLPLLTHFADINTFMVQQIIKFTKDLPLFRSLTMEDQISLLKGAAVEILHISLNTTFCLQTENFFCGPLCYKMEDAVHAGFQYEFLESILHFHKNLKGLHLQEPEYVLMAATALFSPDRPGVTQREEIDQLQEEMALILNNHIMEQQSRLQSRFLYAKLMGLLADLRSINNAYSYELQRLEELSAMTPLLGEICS

CYP2B = details: mouse, in vivo, ip, cited from earlier work
CARα = target: T4, CARα (Homo sapiens, UniProt Q14994); assay type: cell-based
T4 construct: expressed in transfected cells; host or cells: CV-1 cells
T4 sequence (Q14994 1-348 isoform Q14994-2): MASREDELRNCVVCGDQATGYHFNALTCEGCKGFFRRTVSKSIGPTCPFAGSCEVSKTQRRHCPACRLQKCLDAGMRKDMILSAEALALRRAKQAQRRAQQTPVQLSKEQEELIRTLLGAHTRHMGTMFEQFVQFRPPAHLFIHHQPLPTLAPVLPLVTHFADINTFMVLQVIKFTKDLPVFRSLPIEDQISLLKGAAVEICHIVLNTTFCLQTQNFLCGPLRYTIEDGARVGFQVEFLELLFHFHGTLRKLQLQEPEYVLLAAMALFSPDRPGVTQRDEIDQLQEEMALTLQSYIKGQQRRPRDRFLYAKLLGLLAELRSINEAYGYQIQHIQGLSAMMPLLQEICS

CARβ = target: T5, CARβ (Mus musculus, UniProt O35627); assay type: cell-based
T5 construct: expressed in transfected cells; host or cells: CV-1 cells
T5 sequence (O35627 1-358): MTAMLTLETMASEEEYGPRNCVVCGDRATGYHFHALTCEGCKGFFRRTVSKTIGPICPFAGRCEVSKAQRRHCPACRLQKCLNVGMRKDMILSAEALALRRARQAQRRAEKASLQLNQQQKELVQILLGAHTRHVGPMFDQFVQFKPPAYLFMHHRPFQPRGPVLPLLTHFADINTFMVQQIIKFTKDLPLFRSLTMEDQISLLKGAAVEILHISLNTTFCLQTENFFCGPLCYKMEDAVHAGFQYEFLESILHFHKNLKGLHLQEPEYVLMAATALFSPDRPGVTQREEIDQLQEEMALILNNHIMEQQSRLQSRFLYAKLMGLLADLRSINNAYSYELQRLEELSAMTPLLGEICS

CAR = test: RARE-luciferase reporter gene assay in CV-1 cells with increasing CAR expression plasmid (Example 4); assay type: cell-based; details: 10 μM compound, 24 h
[6] = target: GST-CARβ ligand binding domain fusion protein (mouse, UniProt P08515 1-218 = GST; O35627 86-358); test: fluorescence polarization peptide sensor assay, with small-molecule agonists
[7] = half-maximal concentration of stimulation of peptide sensor assay signal, read-out: GST-CARα EC50

Molecule `C[C@]12CC[C@@H](O)C[C@@H]1CC[C@@H]1[C@@H]2CC[C@]2(C)C=CC[C@@H]12` [5α-androst-16-en-3α-ol] has an IC50 ([1]; in the presence of 5 μM 5β-pregnan-3,20-dione, read-out: IC50, decrease of fluorescence polarization seen with 5β-pregnan-3,20-dione) of 530 nM.

With `Clc1cnc(Oc2ccc(Oc3ncc(Cl)cc3Cl)cc2)c(Cl)c1` [TCPOBOP, 1,4-bis[2-(3,5-dichloropyridyloxy)]benzene] the EC50 [2] was 60 nM, the “Plasma cholesterol levels, CAR knockout mice” value [3] was “no effect” and the “Reduction in total cholesterol, female heterozygous CAR mice (+/−)” value [3] was 60%. For the same molecule, the “Total plasma cholesterol, mice with one functional CAR gene (+/−)” value [3] was “decreased total plasma cholesterol”, the “Total plasma cholesterol, wild-type littermates (+/+)” value [3] was “decreased total plasma cholesterol” and the “Plasma levels of LDL/VLDL, CAR deficient (knockout) mice” value [4] was “unaffected”. The “Plasma levels of LDL/VLDL, wild-type mice” value [4] was “significant reduction”, the “Reduction in HDL” value [5] was 40% and the “Reduction in total plasma cholesterol” value [5] was 40%. The “Reduction in triglyceride levels” value [5] was 15-30%, the EC50 (mouse CAR) was 20 nM and the “Duration of CYP2B expression induction” value (CYP2B; 3 mg/kg) was “over 20 weeks”. The “Dose inducing half maximal expression of CYP2B” value (CYP2B) was 0.066 mg/kg.

For `COc1ccc(C2CC(c3ccc(Cl)cc3)=NN2c2ccccc2Cl)c(OC)c1` (centres unmarked) [Compound T0318784], the EC50 [1, 7] was 91.2 nM, the EC50 [2] was 96.7 nM and the “CMV-CARα, fold increase in normalized luciferase activity over DMSO control” value (CARα) was 1.78. For the same molecule, the “CMV-CARβ, fold increase in normalized luciferase activity over DMSO control” value (CARβ) was 3.87.

For `Clc1ccc(CSCc2cc(Sc3c(Cl)cccc3Cl)nc(-c3ccccn3)n2)cc1` [Compound T0434523], the EC50 [1, 7] was 79.7 nM, the EC50 [2] was 52.2 nM and the “CMV-CARα, fold increase in normalized luciferase activity over DMSO control” value (CARα) was 2.17. The “CMV-CARβ, fold increase in normalized luciferase activity over DMSO control” value (CARβ) was 1.29.

With `CCOC(=O)C(Nc1ccc(OCc2ccccc2)cc1)c1ccccc1` (centres unmarked) [Compound T0037566] the EC50 [1, 7] was 221 nM, the EC50 [2] was 99.1 nM and the “CMV-CARα, fold increase in normalized luciferase activity over DMSO control” value (CARα) was 1.96. The “CMV-CARβ, fold increase in normalized luciferase activity over DMSO control” value (CARβ) was 2.14.

In the case of `CC(=O)[C@H]1CC[C@H]2[C@@H]3CC[C@@H]4CC(=O)CC[C@]4(C)[C@H]3CC[C@]12C` [5β-pregnan-3,20-dione], the EC50 [1] is reported as 2500 nM, the “Fluorescence polarization between sensor peptide and GST-CAR” value [1] is reported as “increased” and the “Transcription of the luciferase reporter gene (normalized luciferase activity)” value (CAR) is reported as “increased transcription”.

In the case of `CCN(CC)c1ccc(C2C3=C(CC(C)(C)CC3=O)OC3=C2C(=O)CC(C)(C)C3)c(OCc2ccc(Cl)cc2Cl)c1` [Compound T0438248], the EC50 [1, 7] is reported as 5.25 nM, the EC50 [2] is reported as 65.4 nM and the “CMV-CARα, fold increase in normalized luciferase activity over DMSO control” value (CARα) is reported as 2.92. The “CMV-CARβ, fold increase in normalized luciferase activity over DMSO control” value (CARβ) was 0.96.

In the case of `C[C@@]12CCC[C@H]1[C@@H]1CC[C@H]3C[C@H](O)CC[C@]3(C)[C@H]1CC2` [5α-androstane-3α-ol], the “Transcription of the luciferase reporter gene (normalized luciferase activity)” value (CAR) is reported as “decreased”.

B1: rhodamine-ILRKLLQE (rhodamine-labeled peptide derived from the receptor binding domain of the coactivator SRC-1) (peptide)
peptide: rhodamine-ILRKLLQE
modifications: reading uncertain; also: printed as rhodamine-ILRKLLQE
notes: Labeled 8-mer used as the fluorescence polarization sensor; also called sensor peptide
B1: binds [6].
